In one test the target is Cathepsin D (Cat D) (Homo sapiens, UniProt P07339). The experiment in a line: In vitro enzymatic Cathepsin D (Cat D) FRET assay. To be noted: read-out: CatD IC50. The test is classed as biochemical. The procedure, abridged:
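FRET peptide substrate (20 nM) is cleaved by CHO-derived recombinant enzyme (9 nM) for 1 h after a 1 h inhibitor pre-incubation, at pH 3.5 in citrate buffer with 5 mM CHAPS and 10% DMSO. Tris addition ends the reaction; fluorescence measured at 500 nm excitation, 580 nm emission.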

In test [1] the target is Beta Secretase enzyme (BACE) (Homo sapiens, UniProt P56817). The test is described as follows: In vitro enzymatic BACE FRET assay. In kind it is biochemical. To be noted: read-out: BACE1 FRET assay IC50. The procedure, abridged: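 Cleavage of a quenched 50 nM FRET peptide substrate, read as fluorescence (excitation 488 nm, […]) after 1 h and Tris quench to neutrality. Buffer: 0.05 M acetate pH 4.2 with 10% DMSO and 100 uM genapol. Inhibitor dilutions were pre-incubated 1 h with 0.2 nM enzyme.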
Sequence of Beta Secretase enzyme (BACE) (P56817 46-501): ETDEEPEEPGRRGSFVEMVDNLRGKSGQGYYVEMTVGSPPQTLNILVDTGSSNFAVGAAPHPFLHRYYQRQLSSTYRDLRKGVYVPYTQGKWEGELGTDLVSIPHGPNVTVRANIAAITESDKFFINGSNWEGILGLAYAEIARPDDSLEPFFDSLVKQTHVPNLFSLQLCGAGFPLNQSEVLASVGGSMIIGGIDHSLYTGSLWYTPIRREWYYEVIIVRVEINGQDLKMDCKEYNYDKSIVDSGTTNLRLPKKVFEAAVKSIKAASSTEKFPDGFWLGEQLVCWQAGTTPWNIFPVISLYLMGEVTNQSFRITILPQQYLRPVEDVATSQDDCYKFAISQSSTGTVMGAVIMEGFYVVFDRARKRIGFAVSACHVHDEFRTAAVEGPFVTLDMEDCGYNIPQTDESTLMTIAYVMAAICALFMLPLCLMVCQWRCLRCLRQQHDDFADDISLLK

Test [2] concerns Aβ 40 in conditioned medium of cells stably expressing Amyloid Precursor Protein (APP). The test is described as follows: In vitro BACE cell-based assay (Aβ 40 sandwich ELISA). To be noted: Homo sapiens, HEK293. Summed up: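 Aβ40 in conditioned medium measured by pAb40/biotin-6E10 sandwich ELISA with time-resolved europium fluorescence, after 24 h exposure of stable APP cells to compounds (10-point series starting 100 μM or 10 μM; 0.1% DMSO). IC50 fitted from percent of control against concentration.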
Background: In an ELISA, binding on a coated surface is turned into a signal by an enzyme label.

Setting [3] is: average IC50, in vitro enzymatic BACE FRET assay.
[4] abbreviates: average IC50, HEK cell assay, Aβ 40 readout.

IC50 data for 18 molecules are collected here from patent publication US9309263B2, “Fused multi-cyclic sulfone compounds as inhibitors of beta-secretase and methods of use thereof” (AMGEN INC., priority 2013, dated 2016).

Where two headings read alike, the source gives them in different places.

Sequence of Cathepsin D (Cat D) (P07339 65-412, species assumed): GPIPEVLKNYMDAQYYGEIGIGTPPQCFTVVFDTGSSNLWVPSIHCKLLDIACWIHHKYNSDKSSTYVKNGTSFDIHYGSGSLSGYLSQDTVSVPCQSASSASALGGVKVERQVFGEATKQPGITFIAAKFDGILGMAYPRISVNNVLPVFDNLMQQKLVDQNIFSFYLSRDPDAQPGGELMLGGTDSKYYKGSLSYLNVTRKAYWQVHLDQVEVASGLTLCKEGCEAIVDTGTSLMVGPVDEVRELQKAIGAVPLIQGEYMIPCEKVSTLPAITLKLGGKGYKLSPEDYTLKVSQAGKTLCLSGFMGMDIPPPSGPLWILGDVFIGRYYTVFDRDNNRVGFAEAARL

As for `CC1(C)C(N)=N[C@]2(C)c3cc(Nc4ncnc5cc(Cl)cnc45)ccc3OCC[C@H]2S1(=O)=O` [Example 176, (4aR,11bR)-N^~10^~-(7-chloropyrido[3,2-d]yrimidin-4-yl)-3,3,11b-trimethyl-4a,5,6,11b-tetrahydro-3H-[1]benzoxepino[4,5-b][1,4]thiazine-2,10-diamine 4,4-dioxide], the 50% inhibitory concentration (IC50) – broadly, the concentration that inhibits the measured activity by half – on Cathepsin D (Cat D) was determined as 186 µM; in test [1] (average IC50), 0.008 µM; in test [2] (HEK cells, average IC50), 0.011 µM.

For the molecule `C[C@]12N=C(N)C3(CCC3)S(=O)(=O)[C@@H]1CCOc1ncc(Nc3nccc4cc(Cl)cnc34)cc12` [Example 61], the IC50 on Cathepsin D (Cat D) turned out to be 680 µM; in test [1] (average IC50), 0.018 µM; in test [2] (HEK cell, average IC50), 0.125 µM.

As to `C[C@H]1C[C@@H]2[C@](CF)(N=C(N)C(C)(C)S2(=O)=O)c2cc(Nc3nccc4cc(C#N)cnc34)ccc2O1` [Example 110, 8-(((4aR,6S,11bS)-2-amino-11b-(fluoromethyl)-3,3,6-trimethyl-4,4-dioxido-4a,5,6,11b-tetrahydro-3H-[1]benzoxepino[4,5-b][1,4]thiazin-10-yl)amino)-1,7-naphthyridine-3-carbonitrile], the figures for the 50% inhibitory concentration (IC50) (on Cathepsin D (Cat D) (Cathepsin D FRET assay); in test [1] (setting [3]); in test [2] (setting [4])) were greater than 400 µM, 0.013 µM and 0.021 µM, respectively.

As to `CC#C[C@H](C)Oc1cnc2c(Nc3ccc4c(c3)[C@@]3(C)N=C(N)C(C)(C)S(=O)(=O)[C@@H]3CCO4)ncc(F)c2c1` (single isomer, unassigned) [Example 70], the IC50 on Cathepsin D (Cat D) is 237 µM; in test [1] (average IC50), 0.003 µM; in test [2] (HEK cell, average IC50) it was 0.026 µM.

As for `COc1cnc2c(Nc3ccc4c(c3)[C@@]3(C)N=C(N)C(C)(C)S(=O)(=O)[C@@H]3CCO4)nccc2n1` [Example 156, (4aR,11bR)-N^~10^~-(2-methoxypyrido[3,4-b]pyrazin-5-yl)-3,3,11b-trimethyl-4a,5,6,11b-tetrahydro-3H-[1]benzoxepino[4,5-b][1,4]thiazine-2,10-diamine 4,4-dioxide], the 50% inhibitory concentration (IC50) on Cathepsin D (Cat D) (Cathepsin D FRET assay) stood at 1030 µM; in test [1] (setting [3]), 0.011 µM; in test [2] (setting [4]) it was 0.014 µM.

Consider `C#CCOc1cnc2c(Nc3ccc4c(c3)[C@@]3(C)N=C(N)C(C)(C)S(=O)(=O)[C@@H]3CC(C)(C)O4)nccc2n1` [Example 141, (4aR,11bR)-3,3,6,6,11b-pentamethyl-N^~10^~-(2-(2-propyn-1-yloxy)pyrido[3,4-b]pyrazin-5-yl)-4a,5,6,11b-tetrahydro-3H-[1]benzoxepino[4,5-b][1,4]thiazine-2,10-diamine 4,4-dioxide], for which the concentration for half-maximal inhibition (IC50) is 385 µM on Cathepsin D (Cat D) (Cathepsin D FRET assay), 0.004 µM in test [1] (setting [3]) and 0.017 µM in test [2] (setting [4]).

For `COc1cnc(C(=O)Nc2ccc3c(c2)[C@@]2(C)N=C(N)C(C)(C)S(=O)(=O)[C@@H]2CCS3)cn1` [Example 117, N-((4aR,11bR)-2-amino-3,3,11b-trimethyl-4,4-dioxido-4a,5,6,11b-tetrahydro-3H-[1]benzothiepino[4,5-b][1,4]thiazin-10-yl)-5-methoxy-2-pyrazinecarboxamide], the IC50 was 168 µM on Cathepsin D (Cat D) (Cathepsin D FRET assay), 0.014 µM in test [1] (setting [3]) and 0.003 µM in test [2] (setting [4]).

For the molecule `Cc1cc(C#N)cnc1C(=O)Nc1ccc2c(c1)[C@@]1(C)N=C(N)C(C)(C)S(=O)(=O)[C@H]1CCC2` [Example 37, N-((4aS,11bR)-2-amino-3,3,11b-trimethyl-4,4-dioxido-3,4a,5,6,7,11b-hexahydrobenzo[3,4]cyclohepta[1,2-b][1,4]thiazin-10-yl)-5-cyano-3-methyl-2-pyridinecarboxamide], the IC50 was greater than 400 µM on Cathepsin D (Cat D); 0.036 µM in test [1] (average IC50); 0.016 µM in test [2] (HEK cell, average IC50).

`Cc1cc(Cl)cnc1C(=O)Nc1ccc2c(c1)[C@@]1(C)N=C(N)C(C)(C)S(=O)(=O)[C@@H]1CCS2` [Example 114, N-((4aR,11bR)-2-amino-3,3,11b-trimethyl-4,4-dioxido-4a,5,6,11b-tetrahydro-3H-[1]benzothiepino[4,5-b][1,4]thiazin-10-yl)-5-chloro-3-methyl-2-pyridinecarboxamide]: the IC50 on Cathepsin D (Cat D) (Cathepsin D FRET assay) was 292 µM; in test [1] (setting [3]), 0.001 µM; in test [2] (setting [4]), 0.012 µM.

In the case of `COc1cnc(C(=O)Nc2ccc3c(c2)[C@@]2(C)N=C(N)C(C)(C)S(=O)(=O)[C@@H]2CCO3)c(C)n1` [Example 22, N-((4aR,11bR)-2-amino-3,3,11b-trimethyl-4,4-dioxido-4a,5,6,11b-tetrahydro-3H-[1]benzoxepino[4,5-b][1,4]thiazin-10-yl)-5-methoxy-3-methyl-2-pyrazinecarboxamide], the IC50 turned out to be 1240 µM at Cathepsin D (Cat D); 0.017 µM in test [1] (average IC50); 0.007 µM in test [2] (HEK cell, average IC50).

For `Cc1cc(Cl)cnc1C(=O)Nc1ccc2c(c1)[C@]1(C)N=C(N)C(C)(C)S(=O)(=O)[C@H]1CCO2` (racemic) [Example 4, N-((4aRS,11bRS)-2-amino-3,3,11b-trimethyl-4,4-dioxido-4a,5,6,11b-tetrahydro-3H-benzo[6,7]oxepino[4,5-b][1,4]thiazin-10-yl)-5-chloro-3-methylpicolinamide], the IC50 at Cathepsin D (Cat D) is greater than 100 µM; in test [1] (average IC50), 0.004 µM; in test [2] (HEK cell, average IC50), 0.01 µM.

In the case of `Cc1cc(OC(F)F)cnc1C(=O)Nc1ccc2c(c1)[C@@]1(C)N=C(N)C(C)(C)S(=O)(=O)[C@H]1CCO2` [Example 160, N-((4aS,11bR)-2-amino-3,3,11b-trimethyl-4,4-dioxido-4a,5,6,11b-tetrahydro-3H-[1]benzoxepino[4,5-b][1,4]thiazin-10-yl)-5-(difluoromethoxy)-3-methyl-2-pyridinecarboxamide], the IC50 at Cathepsin D (Cat D) is 1170 µM; in test [1] (average IC50), 0.01 µM; in test [2] (HEK cells, average IC50) it was 0.003 µM.

As for `Cc1cc(OC(F)F)cnc1C(=O)Nc1ccc2c(c1)[C@@]1(C)N=C(N)C(C)(C)S(=O)(=O)[C@H]1CCC2` [Example 39, N-((4aS,11bR)-2-amino-3,3,11b-trimethyl-4,4-dioxido-3,4a,5,6,7,11b-hexahydrobenzo[3,4]cyclohepta[1,2-b][1,4]thiazin-10-yl)-5-(difluoromethoxy)-3-methyl-2-pyridinecarboxamide], the half-maximal inhibitory concentration (IC50) is greater than 400 µM at Cathepsin D (Cat D); 0.142 µM in test [1] (average IC50); 0.022 µM in test [2] (HEK cell, average IC50).

`Cc1cc(C#N)cnc1C(=O)Nc1cnc2c(c1)[C@@]1(C)N=C(N)C(C)(C)S(=O)(=O)[C@H]1CCO2` [Example 21, N-((4aS,11bR)-2-amino-3,3,11b-trimethyl-4,4-dioxido-4a,5,6,11b-tetrahydro-3H-pyrido[3′,2′:6,7]oxepino[4,5-b][1,4]thiazin-10-yl)-5-cyano-3-methyl-2-pyridinecarboxamide]: the IC50 at Cathepsin D (Cat D) turned out to be 1420 µM; in test [1] (average IC50), 0.007 µM; in test [2] (HEK cell, average IC50) it was 0.026 µM.

As to `CC1(C)C(N)=N[C@]2(C)c3cc(NC(=O)c4ncc(C#N)cc4Cl)ccc3OCC[C@H]2S1(=O)=O` [Example 174, N-((4aR,11bR)-2-amino-3,3,11b-trimethyl-4,4-dioxido-4a,5,6,11b-tetrahydro-3H-[1]benzoxepino[4,5-b][1,4]thiazin-10-yl)-3-chloro-5-cyano-2-pyridinecarboxamide], the concentration for half-maximal inhibition (IC50) is 1070 µM on Cathepsin D (Cat D); 0.002 µM in test [1] (average IC50); 0.002 µM in test [2] (HEK cells, average IC50).

On to `Cc1cc(OC(F)F)cnc1C(=O)Nc1ccc2c(c1)[C@@]1(C)N=C(N)C(C)(C)S(=O)(=O)[C@@H]1CCO2` [Example 157, N-((4aR,11bR)-2-amino-3,3,11b-trimethyl-4,4-dioxido-4a,5,6,11b-tetrahydro-3H-[1]benzoxepino[4,5-b][1,4]thiazin-10-yl)-5-(difluoromethoxy)-3-methyl-2-pyridinecarboxamide], for which the values for the IC50 (on Cathepsin D (Cat D) (Cathepsin D FRET assay); in test [1] (setting [3]); in test [2] (setting [4])) were 1200 µM, 0.002 µM and 0.003 µM, respectively.

As to `CC(C#N)Oc1ccc(C(=O)Nc2ccc3c(c2)[C@@]2(C)N=C(N)C(C)(C)S(=O)(=O)[C@@H]2CCO3)nc1` (mixture of isomers) [Example 125, N-((4aR,11bR)-2-amino-3,3,11b-trimethyl-4,4-dioxido-4a,5,6,11b-tetrahydro-3H-[1]benzoxepino[4,5-b][1,4]thiazin-10-yl)-5-((1R)-1-cyanoethoxy)-2-pyridinecarboxamide, N-((4aR,11bR)-2-amino-3,3,11b-trimethyl-4,4-dioxido-4a,5,6,11b-tetrahydro-3H-[1]benzoxepino[4,5-b][1,4]thiazin-10-yl)-5-((15)-1-cyanoethoxy)-2-pyridinecarboxamide], the IC50 on Cathepsin D (Cat D) (Cathepsin D FRET assay) is 1060 µM; in test [1] (setting [3]), 0.056 µM; in test [2] (setting [4]), 0.067 µM.

For `CC1(C)C(N)=N[C@]2(C)c3cc(NC(=O)c4ncc(Cl)cc4Cl)ccc3CCC[C@H]2S1(=O)=O` [Example 44, N-((4aR,11bR)-2-amino-3,3,11b-trimethyl-4,4-dioxido-3,4a,5,6,7,11b-hexahydrobenzo[3,4]cyclohepta[1,2-b][1,4]thiazin-10-yl)-3,5-dichloro-2-pyridinecarboxamide], the half-inhibitory concentration (IC50) at Cathepsin D (Cat D) came out at 541 µM; in test [1] (average IC50), 0.005 µM; in test [2] (HEK cell, average IC50), 0.016 µM.
